Laboratory results: US20050065187A1, “Novel antimicrobial aryloxazolidinone compounds” (priority 2003, published 2005)
In brackets after ≈: the same amount, converted by molar mass. Read-outs that look alike come from different tables or passages of the source.

Tests used:
Test in all cases: Antibacterial assay (Test A), microtitration MIC
MC 30603 = assay type: cell-based, M. catarrhalis; details: Moraxella catarrhalis, read-out: MC 30603 MIC
Experimental: (§1) Test A—Antibacterial Assays
(§2) The compounds of the present invention were tested against an assortment of Gram-negative and Gram-positive organisms using standard microtitration techniques (Cohen et. al., Antimicrob., 1985;28:766; Heifetz, et. al., Antimicrob., 1974;6:124).

HINF 30063 = assay type: cell-based, H. influenza; details: Minimum Inhibitory Concentration, strain HINF 30063
Experimental: as §1, §2

SPNE 9912 = assay type: cell-based, S. pneumoniae; details: Streptococcus pneumoniae, read-out: SPNE 9912 MIC
Experimental: as §1, §2

SAUR 9213 = assay type: cell-based, S. aureus; details: Staphylococcus aureus, read-out: SAUR 9213 MIC
Experimental: as §1, §2

[1] = Minimum Inhibitory Concentration, strain MC 30603
[2] = Minimum Inhibitory Concentration, strain SPNE 9912
[3] = Minimum Inhibitory Concentration, strain SAUR 9213

Row | Compound | MIC (MC 30603; [1]) [µg/mL] | MIC (HINF 30063) [µg/mL] | MIC (SPNE 9912; [2]) [µg/mL] | MIC (SAUR 9213; [3]) [µg/mL] | MIC (MC 30603) [µg/mL] | MIC (SPNE 9912) [µg/mL] | MIC (SAUR 9213) [µg/mL]
1 | CC(=O)NC[C@H]1CN(c2ccc(C3CC[C@@H](O)[C@@H](O)C3)cc2)C(=O)O1 (single isomer, unassigned) [Example 12, N-{3-[4-(3,4-Dihydroxy-cyclohexyl)-phenyl]-2-oxo-oxazolidin-5-ylmethyl}-acetamide] | 16 (≈ 45.9 µM) | 16 (≈ 45.9 µM) | 4 (≈ 11.5 µM) | 16 (≈ 45.9 µM) | – | – | –
2 | CC(=O)NC[C@H]1CN(c2ccc(C3CCC(O)C(F)C3)c(F)c2)C(=O)O1 (single isomer, unassigned) [Example 26, N-{3-[3-Fluoro-4-(3-fluoro-4-hydroxy-cyclohexyl)-phenyl]-2-oxo-oxazolidin-5-ylmethyl}-acetamide] | 8 (≈ 21.7 µM) | 16 (≈ 43.4 µM) | 0.5 (≈ 1.36 µM) | 2 (≈ 5.43 µM) | – | – | –
3 | CCC(=O)NC[C@H]1CN(c2ccc(C3CCC(O)C(F)C3)c(F)c2)C(=O)O1 (single isomer, unassigned) [Example 27, N-{3-[3-Fluoro-4-(3-fluoro-4-hydroxy-cyclohexyl)-phenyl]-2-oxo-oxazolidin-5-ylmethyl}-propionamide] | 2 (≈ 5.23 µM) | 8 (≈ 20.9 µM) | 0.25 (≈ 0.654 µM) | 2 (≈ 5.23 µM) | – | – | –
4 | O=C1O[C@@H](CNC(=S)C(F)F)CN1c1ccc(C2CCC(O)C(F)C2)c(F)c1 (single isomer, unassigned) [Example 28, 2,2-Difluoro-N-{3-[3-fluoro-4-(3-fluoro-4-hydroxy-cyclohexyl)-phenyl]-2-oxo-oxazolidin-5-ylmethyl}-thioacetamide] | 2 (≈ 4.76 µM) | 32 (≈ 76.1 µM) | 0.5 (≈ 1.19 µM) | 1 (≈ 2.38 µM) | – | – | –
5 | CC(=O)NC[C@H]1CN(c2ccc(N3CC[C@@H](O)[C@@H](O)C3)c(F)c2)C(=O)O1 (stereo in doubt) [Example 1, N-{3-[4-(3,4-Dihydroxy-piperidin-1-yl)-3-fluoro-phenyl]-2-oxo-oxazolidin-5-ylmethyl}-acetamide] | – | 32 (≈ 87.1 µM) | – | – | 8 (≈ 21.8 µM) | 2 (≈ 5.44 µM) | 8 (≈ 21.8 µM)
6 | CC(=O)NC[C@H]1CN(c2ccc(N3CC/C(=N/O)[C@@H](O)C3)c(F)c2)C(=O)O1 (stereo in doubt) [Example 3, N-{3-[3-Fluoro-4-(3-hydroxy-4-hydroxyimino-piperidin-1-yl)-phenyl]-2-oxo-oxazolidin-5-ylmethyl}-acetamide] | 16 (≈ 42.1 µM) | 16 (≈ 42.1 µM) | 2 (≈ 5.26 µM) | 8 (≈ 21 µM) | – | – | –
7 | O=C1O[C@@H](Cn2ccnn2)CN1c1ccc(N2CC[C@@H](O)[C@@H](O)C2)c(F)c1 (stereo in doubt) [Example 5, 3-[4-(3,4-Dihydroxy-piperidin-1-yl)-3-fluoro-phenyl]-5-[1,2,3]triazol-1-ylmethyl-oxazolidin-2-one] | 16 (≈ 42.4 µM) | 32 (≈ 84.8 µM) | 1 (≈ 2.65 µM) | 4 (≈ 10.6 µM) | – | – | –
8 | CCC(=O)NC[C@H]1CN(c2ccc(C3CCC(O)[C@@H](O)C3)c(F)c2)C(=O)O1 (stereo in doubt) [Example 8, N-{3-[4-(3,4-Dihydroxy-cyclohexyl)-3-fluoro-phenyl]-2-oxo-oxazolidin-5-ylmethyl}-propionamide] | 8 (≈ 21 µM) | 8 (≈ 21 µM) | 2 (≈ 5.26 µM) | 8 (≈ 21 µM) | – | – | –
9 | O=C(NC[C@H]1CN(c2ccc(C3CCC(O)[C@@H](O)C3)c(F)c2)C(=O)O1)C(Cl)Cl (stereo in doubt) [Example 9, 2,2-Dichloro-N-{3-[4-(3,4-dihydroxy-cyclohexyl)-3-fluoro-phenyl]-2-oxo-oxazolidin-5-ylmethyl}-acetamide] | 4 (≈ 9.19 µM) | 4 (≈ 9.19 µM) | 1 (≈ 2.3 µM) | 4 (≈ 9.19 µM) | – | – | –
10 | O=C(NC[C@H]1CN(c2ccc(C3CCC(O)[C@@H](O)C3)c(F)c2)C(=O)O1)C(F)F (stereo in doubt) [Example 10, N-{3-[4-(3,4-Dihydroxy-cyclohexyl)-3-fluoro-phenyl]-2-oxo-oxazolidin-5-ylmethyl}-2,2-difluoro-acetamide] | 4 (≈ 9.94 µM) | 8 (≈ 19.9 µM) | 1 (≈ 2.49 µM) | 4 (≈ 9.94 µM) | – | – | –
11 | O=C1O[C@@H](CNC(=S)C(F)F)CN1c1ccc(C2CCC(O)[C@@H](O)C2)c(F)c1 (stereo in doubt) [Example 11, N-{3-[4-(3,4-Dihydroxy-cyclohexyl)-3-fluoro-phenyl]-2-oxo-oxazolidin-5-ylmethyl}-2,2-difluoro-thioacetamide] | 4 (≈ 9.56 µM) | 8 (≈ 19.1 µM) | 0.5 (≈ 1.19 µM) | 1 (≈ 2.39 µM) | – | – | –
12 | O=C(NC[C@H]1CN(c2ccc(C3CCC(O)[C@@H](O)C3)cc2)C(=O)O1)C(Cl)Cl (stereo in doubt) [Example 13, 2,2-Dichloro-N-{3-[4-(3,4-dihydroxy-cyclohexyl)-phenyl]-2-oxo-oxazolidin-5-ylmethyl}-acetamide] | 8 (≈ 19.2 µM) | 8 (≈ 19.2 µM) | 1 (≈ 2.4 µM) | 8 (≈ 19.2 µM) | – | – | –
13 | O=C(NC[C@H]1CN(c2ccc(C3CCC(O)[C@@H](O)C3)cc2)C(=O)O1)C(F)F (stereo in doubt) [Example 14, N-{3-[4-(3,4-Dihydroxy-cyclohexyl)-phenyl]-2-oxo-oxazolidin-5-ylmethyl}-2,2-difluoro-acetamide] | 16 (≈ 41.6 µM) | 16 (≈ 41.6 µM) | 2 (≈ 5.2 µM) | 8 (≈ 20.8 µM) | – | – | –
14 | O=C1O[C@@H](CNC(=S)C(F)F)CN1c1ccc(C2CCC(O)[C@@H](O)C2)cc1 (stereo in doubt) [Example 15, N-{3-[4-(3,4-Dihydroxy-cyclohexyl)-phenyl]-2-oxo-oxazolidin-5-ylmethyl}-2,2-difluoro-thioacetamide] | 8 (≈ 20 µM) | 16 (≈ 40 µM) | 1 (≈ 2.5 µM) | 4 (≈ 9.99 µM) | – | – | –
15 | CC(=O)NC[C@H]1CN(c2ccc(C3CCC(O)CC3)c(F)c2)C(=O)O1 (stereo in doubt) [Example 16, N-{3-[3-Fluoro-4-(4-hydroxy-cyclohexyl)-phenyl]-2-oxo-oxazolidin-5-ylmethyl}-acetamide] | 4 (≈ 11.4 µM) | 8 (≈ 22.8 µM) | 1 (≈ 2.85 µM) | 2 (≈ 5.71 µM) | – | – | –
16 | CCC(=O)NC[C@H]1CN(c2ccc(C3CCC(O)CC3)c(F)c2)C(=O)O1 (stereo in doubt) [Example 17, N-{3-[3-Fluoro-4-(4-hydroxy-cyclohexyl)-phenyl]-2-oxo-oxazolidin-5-ylmethyl}-propionamide] | 4 (≈ 11 µM) | 4 (≈ 11 µM) | 1 (≈ 2.74 µM) | 2 (≈ 5.49 µM) | – | – | –
17 | O=C(NC[C@H]1CN(c2ccc(C3CCC(O)CC3)c(F)c2)C(=O)O1)C(F)F (stereo in doubt) [Example 18, 2,2-Difluoro-N-{3-[3-fluoro-4-(4-hydroxy-cyclohexyl)-phenyl]-2-oxo-oxazolidin-5-ylmethyl}-acetamide] | 4 (≈ 10.4 µM) | 8 (≈ 20.7 µM) | 0.5 (≈ 1.29 µM) | 2 (≈ 5.18 µM) | – | – | –
18 | NC(=O)[C@H]1CN(c2ccc(C3CCC(O)CC3)c(F)c2)C(=O)O1 (stereo in doubt) [Example 23, 3-[3-Fluoro-4-(4-hydroxy-cyclohexyl)-phenyl]-2-oxo-oxazolidine-5-carboxylic acid amide] | 16 (≈ 49.6 µM) | 64 (≈ 199 µM) | 1 (≈ 3.1 µM) | 2 (≈ 6.2 µM) | – | – | –
19 | CC(=O)NC[C@H]1CN(c2ccc([C@@H]3CCC(=O)[C@@H](O)C3)c(F)c2)C(=O)O1 (stereo in doubt) [Example 25, N-{3-[3-Fluoro-4-(3-hydroxy-4-oxo-cyclohexyl)-phenyl]-2-oxo-oxazolidin-5-ylmethyl}-acetamide] | – | 16 (≈ 43.9 µM) | – | – | 8 (≈ 22 µM) | 2 (≈ 5.49 µM) | 2 (≈ 5.49 µM)
20 | CC(=O)NC[C@H]1CN(c2ccc(N3CCC(=O)[C@@H](O)C3)c(F)c2)C(=O)O1 [Example 2, N-{3-[3-Fluoro-4-(3-hydroxy-4-oxo-piperidin-1-yl)-phenyl]-2-oxo-oxazolidin-5-ylmethyl}-acetamide] | 8 (≈ 21.9 µM) | 16 (≈ 43.8 µM) | 1 (≈ 2.74 µM) | 4 (≈ 10.9 µM) | – | – | –
21 | CON=C1CCN(c2ccc(N3CC(CNC(C)=O)OC3=O)cc2F)CC1O (stereo not shown) [Example 4, N-{3-[3-Fluoro-4-(3-hydroxy-4-methoxyimino-piperidin-1-yl)-phenyl]-2-oxo-oxazolidin-5-ylmethyl}-acetamide] | 32 (≈ 81.1 µM) | 64 (≈ 162 µM) | 2 (≈ 5.07 µM) | 8 (≈ 20.3 µM) | – | – | –
22 | O=C1CCN(c2ccc(N3C[C@H](Cn4ccnn4)OC3=O)cc2F)C[C@@H]1O [Example 6, 1-[2-Fluoro-4-(2-oxo-5-[1,2,3]triazol-1-ylmethyl-oxazolidin-3-yl)-phenyl]-3-hydroxy-piperidin-4-one] | 8 (≈ 21.3 µM) | 64 (≈ 171 µM) | 1 (≈ 2.66 µM) | 4 (≈ 10.7 µM) | – | – | –
